This assay has as its target T1, human recombinant HDAC6 (Homo sapiens, UniProt Q9UBN7).
T1 sequence (Q9UBN7 1-1215): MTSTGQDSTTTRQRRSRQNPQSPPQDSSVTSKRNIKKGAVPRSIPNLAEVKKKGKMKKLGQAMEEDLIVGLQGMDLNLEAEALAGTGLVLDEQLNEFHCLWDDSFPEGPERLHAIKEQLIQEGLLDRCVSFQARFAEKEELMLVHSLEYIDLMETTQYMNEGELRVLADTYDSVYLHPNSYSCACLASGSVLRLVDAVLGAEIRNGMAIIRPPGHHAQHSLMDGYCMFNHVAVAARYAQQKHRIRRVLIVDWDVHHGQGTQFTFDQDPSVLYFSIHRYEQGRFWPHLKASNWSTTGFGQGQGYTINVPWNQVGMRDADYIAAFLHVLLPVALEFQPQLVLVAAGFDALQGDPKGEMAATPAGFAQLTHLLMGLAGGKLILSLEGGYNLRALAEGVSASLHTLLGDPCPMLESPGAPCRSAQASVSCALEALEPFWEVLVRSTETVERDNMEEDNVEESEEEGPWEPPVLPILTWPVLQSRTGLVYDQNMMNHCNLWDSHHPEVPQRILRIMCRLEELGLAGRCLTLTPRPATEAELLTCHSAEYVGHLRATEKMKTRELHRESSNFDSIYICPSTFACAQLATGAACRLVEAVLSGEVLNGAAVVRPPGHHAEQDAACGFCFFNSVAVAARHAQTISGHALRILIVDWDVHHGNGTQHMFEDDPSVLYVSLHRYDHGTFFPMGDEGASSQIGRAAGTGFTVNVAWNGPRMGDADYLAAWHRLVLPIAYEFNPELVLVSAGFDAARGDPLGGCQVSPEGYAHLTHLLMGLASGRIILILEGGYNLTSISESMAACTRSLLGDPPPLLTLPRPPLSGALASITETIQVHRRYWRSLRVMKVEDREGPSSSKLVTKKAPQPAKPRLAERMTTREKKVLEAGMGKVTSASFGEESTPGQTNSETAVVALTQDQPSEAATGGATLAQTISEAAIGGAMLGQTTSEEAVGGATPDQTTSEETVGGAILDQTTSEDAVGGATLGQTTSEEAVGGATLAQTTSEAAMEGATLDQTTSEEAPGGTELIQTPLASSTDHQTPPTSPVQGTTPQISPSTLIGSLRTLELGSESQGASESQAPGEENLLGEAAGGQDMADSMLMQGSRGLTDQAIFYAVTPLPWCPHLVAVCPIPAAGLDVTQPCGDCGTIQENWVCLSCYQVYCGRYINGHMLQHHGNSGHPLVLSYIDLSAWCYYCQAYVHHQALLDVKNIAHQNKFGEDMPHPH
Briefly: In vitro histone deacetylase assay: enzymatic HDAC6 electrophoretic mobility shift assay. It counts as biochemical. To be noted: full length human recombinant HDAC6 1 nM, 2 μM peptide substrate RHKK(Ac)-NH2, 25° C.; read-out: Inhibitory Concentration (IC50) against HDAC6, Activity Range. The method, then: The enzymatic HDAC6 assay was performed using electrophoretic mobility shift assay. […] The enzymatic reactions were assembled in 384 well plates and in a total volume of 25 μL in a reaction buffer comprising: 100 mM HEPES, pH 7.5, 25 mM KCl, 0.1% bovine serum albumin, 0.01% Triton X-100, 1% DMSO (from compounds), 2 μM of the fluorescently labeled peptide substrate, and enzyme. The enzyme was added at a final concentration of 1 nM and the peptide substrate RHKK(Ac)—NH2 was used. The compounds were tested at 12 concentrations spaced by 3× dilution intervals. Negative control samples (0%-inhibition in the absence of inhibitor) and positive control samples (100%-inhibition) were assembled in replicates of four in each assay plate. The reactions were incubated at 25° C. and quenched by the addition of 45 μL of termination buffer (100 mM HEPES, pH 7.5, 0.01% Triton X-100, 0.05% SDS).
The terminated assay plates were analyzed on LabChip® 3000 microfluidic electrophoresis instrument (Perkin Elmer/Caliper Life Sciences). The fluorescence intensity of the electrophoretically separated de-acetylated product and substrate peptide was measured. Activity in each sample was determined as the product to sum ratio (PSR):P/(S+P), where P is the peak height of the product peptide and S is the peak height of the substrate peptide. Percent inhibition (Pinh) is determined using the following equation: Pinh=(PSR0%−PSRinh)/(PSR0%−PSR100%)*100, where PSRinh is the product sum ratio in the presence of inhibitor, PSR0% is the average product sum ration in the absence of inhibitor, and PSR100% is the average product sum ratio in 100%-inhibition control samples. The IC50 values of inhibitors were determined by fitting the %-inhibition curves with 4 parameter dose-response model using XLfit 4 software.
As set forth in Table 4, below, IC50 values are defined as follows: IC50≤0.1 μM (+++); IC50>0.1 μM and ≤0.5 μM (++); IC50>0.5 μM (+).

In US11274085B2, “3-aryl-bicyclic [4,5,0] hydroxamic acids as HDAC inhibitors” (Valo Health, Inc., priority 2015, dated 2022) one finds IC50 data, which are given here for 26 compounds.

For `CN(C)C(=O)N1Cc2ccc(C(=O)NO)cc2OC[C@@H]1c1ccccc1` [(S)-N8-hydroxy-N4,N4-dimethyl-3-phenyl-2,3-dihydrobenzo[f][1,4]oxazepine-4,8(5H)-dicarboxamide], the IC50 was at most 100 nM. For the compound `O=C(NO)c1ccc2c(c1)OC[C@H](c1ccccc1)N(c1ccccc1)C2` [(S)-N-hydroxy-3,4-diphenyl-2,3,4,5-tetrahydrobenzo[f][1,4]oxazepine-8-carboxamide], the IC50 is at most 100 nM. Turning to `O=C(NO)c1ccc2c(c1)OC[C@H](c1ccccc1)N(C(=O)Nc1cccnc1)C2` [(S)-N8-hydroxy-3-phenyl-N4-(pyridin-3-yl)-2,3-dihydrobenzo[f][1,4]oxazepine-4,8(5H)-dicarboxamide], the IC50 is at most 100 nM. The same measure for `O=C(NO)c1ccc2c(c1)OC[C@H](c1ccccc1)N(C(=O)Nc1ccncc1)C2` [(S)-N8-hydroxy-3-phenyl-N4-(pyridin-4-yl)-2,3-dihydrobenzo[f][1,4]oxazepine-4,8(5H)-dicarboxamide]: at most 100 nM; for `COC1CCN(C(=O)N2Cc3ccc(C(=O)NO)cc3OC[C@@H]2c2ccccc2)CC1` [(S)-N-hydroxy-4-(4-methoxypiperidine-1-carbonyl)-3-phenyl-2,3,4,5-tetrahydrobenzo[f][1,4]oxazepine-8-carboxamide]: at most 100 nM. `Cc1ccc([C@H]2COc3cc(C(=O)NO)ccc3CN2C(=O)N2CCOCC2)cc1` [(S)-N-hydroxy-4-(morpholine-4-carbonyl)-3-(p-tolyl)-2,3,4,5-tetrahydrobenzo[f][1,4]oxazepine-8-carboxamide]: the IC50 is at most 100 nM. As for `O=C(NO)c1ccc2c(c1)OC[C@H](c1ccc(F)cc1)N(C(=O)N1CCOCC1)C2` [(S)-3-(4-fluorophenyl)-N-hydroxy-4-(morpholine-4-carbonyl)-2,3,4,5-tetrahydrobenzo[f][1,4]oxazepine-8-carboxamide], the IC50 was at most 100 nM. `O=C(NO)c1ccc2c(c1)OC[C@H](c1cccc(Cl)c1)N(C(=O)N1CCOCC1)C2` [(S)-3-(3-chlorophenyl)-N-hydroxy-4-(morpholine-4-carbonyl)-2,3,4,5-tetrahydrobenzo[f][1,4]oxazepine-8-carboxamide]: the IC50 is at most 100 nM. As for `COc1ccc(CN2Cc3ccc(C(=O)NO)cc3OC[C@@H]2c2ccccc2)cc1` [(S)-N-hydroxy-4-(4-methoxybenzyl)-3-phenyl-2,3,4,5-tetrahydrobenzo[f][1,4]oxazepine-8-carboxamide], the IC50 was at most 100 nM. The same measure for `O=C(NO)c1ccc2c(c1)OC[C@H](c1ccccc1)N(C(=O)NC1CCOCC1)C2` [(S)-N8-hydroxy-3-phenyl-N4-(tetrahydro-2H-pyran-4-yl)-2,3-dihydrobenzo[f][1,4]oxazepine-4,8(5H)-dicarboxamide]: at most 100 nM; for `O=C(NO)c1ccc2c(c1)OC[C@H](c1ccccc1)N(S(=O)(=O)c1ccc(F)cc1)C2` [(S)-4-((4-fluorophenyl)sulfonyl)-N-hydroxy-3-phenyl-2,3,4,5-tetrahydrobenzo[f][1,4]oxazepine-8-carboxamide]: 100 to 500 nM; for `O=C(NO)c1ccc2c(c1)OC[C@H](c1cccnc1)N(C(=O)N1CCOCC1)C2` (single isomer, unassigned): at most 100 nM. For `O=C(NO)c1ccc2c(c1)OC[C@H](c1ccccc1)N(C(=O)Nc1ccccc1)C2` [(S)-N8-hydroxy-N4,3-diphenyl-2,3-dihydrobenzo[f][1,4]oxazepine-4,8(5H)-dicarboxamide], the IC50 was at most 100 nM.

For the compound `O=C(NO)c1ccc2c(c1)OC[C@@H](c1ccccc1)N(c1ccccc1)C2` [(R)-N-hydroxy-3,4-diphenyl-2,3,4,5-tetrahydrobenzo[f][1,4]oxazepine-8-carboxamide], the IC50 fell in the range of 100 to 500 nM.

Turning to `O=C(NO)c1ccc2c(c1)OC[C@H](c1ccccc1)N(C(=O)NC1CCCCC1)C2` [(S)-N4-cyclohexyl-N8-hydroxy-3-phenyl-2,3-dihydrobenzo[f][1,4]oxazepine-4,8(5H)-dicarboxamide], the IC50 was at most 100 nM.

As for `CN1CCN(C(=O)N2Cc3ccc(C(=O)NO)cc3OC[C@@H]2c2ccccc2)CC1` [(S)-N-hydroxy-4-(4-methylpiperazine-1-carbonyl)-3-phenyl-2,3,4,5-tetrahydrobenzo[f][1,4]oxazepine-8-carboxamide], the IC50 is at most 100 nM. As to `O=C(NO)c1ccc2c(c1)OC[C@H](c1ccccc1)N(C(=O)N1CCCC1)C2` [(S)-N-hydroxy-3-phenyl-4-(pyrrolidine-1-carbonyl)-2,3,4,5-tetrahydrobenzo[f][1,4]oxazepine-8-carboxamide], the IC50 was at most 100 nM.

As for `O=C(NO)c1ccc2c(c1)OC[C@H](c1ccc(C(F)(F)F)cc1)N(C(=O)N1CCOCC1)C2` [(S)-N-hydroxy-4-(morpholine-4-carbonyl)-3-(4-(trifluoromethyl)phenyl)-2,3,4,5-tetrahydrobenzo[f][1,4]oxazepine-8-carboxamide], the IC50 was at most 100 nM. Regarding `O=C(NO)c1ccc2c(c1)OC[C@H](c1ccc(Cl)cc1)N(C(=O)N1CCOCC1)C2` [(S)-3-(4-chlorophenyl)-N-hydroxy-4-(morpholine-4-carbonyl)-2,3,4,5-tetrahydrobenzo[f][1,4]oxazepine-8-carboxamide], the IC50 was at most 100 nM. Consider `CN1Cc2ccc(C(=O)NO)cc2OC[C@H]1c1ccccc1` [(R)-N-hydroxy-4-methyl-3-phenyl-2,3,4,5-tetrahydrobenzo[f][1,4]oxazepine-8-carboxamide], for which the IC50 is at most 100 nM. Regarding `O=C(NO)c1ccc2c(c1)OC[C@H](c1ccccc1)N(C(=O)N1CCCCC1)C2` [(S)-N-hydroxy-3-phenyl-4-(piperidine-1-carbonyl)-2,3,4,5-tetrahydrobenzo[f][1,4]oxazepine-8-carboxamide], the IC50 was at most 100 nM. As to `COc1ccc(CN2Cc3ccc(C(=O)NO)cc3OC[C@H]2c2ccccc2)cc1` [(R)-N-hydroxy-4-(4-methoxybenzyl)-3-phenyl-2,3,4,5-tetrahydrobenzo[f][1,4]oxazepine-8-carboxamide], the IC50 was at most 100 nM. For `O=C(NO)c1ccc2c(c1)OC[C@H](c1ccccc1)N(C(=O)N1CCOCC1)C2` [(S)-N-hydroxy-4-(morpholine-4-carbonyl)-3-phenyl-2,3,4,5-tetrahydrobenzo[f][1,4]oxazepine-8-carboxamide], the IC50 is at most 100 nM. For the compound `CN1Cc2ccc(C(=O)NO)cc2OC[C@@H]1c1ccccc1` [(S)-N-hydroxy-4-methyl-3-phenyl-2,3,4,5-tetrahydrobenzo[f][1,4]oxazepine-8-carboxamide], the IC50 is at most 100 nM. The same measure for `CC(=O)N1CCN(C(=O)N2Cc3ccc(C(=O)NO)cc3OC[C@@H]2c2ccccc2)CC1` [(S)-4-(4-acetylpiperazine-1-carbonyl)-N-hydroxy-3-phenyl-2,3,4,5-tetrahydrobenzo[f][1,4]oxazepine-8-carboxamide]: at most 100 nM. The same measure for `O=C(NO)c1ccc2c(c1)OC[C@@H](c1cccnc1)N(C(=O)N1CCOCC1)C2` (single isomer, unassigned): above 500 nM.
